This test concerns SRE.L-firefly luciferase reporter (Rho/MKL1 pathway) in PC-3 prostate cancer cells. Kind of test: SRE.L-luciferase reporter assay. It counts as cell-based. The note with it: 19 h, PC-3 cells transfected with Gα12Q231L, SRE.L and pRL-TK reporters; compound 19 hrs. In a few lines:
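PC-3 cells co-transfected with Gα12Q231L (2 ng), SRE.L-firefly (50 ng) and pRL-TK Renilla (7 ng) reporters, then treated with 0–100 μM compound for 19 h at 37° C. in 0.5% FBS DMEM. Dual-luciferase luminescence expressed as % inhibition vs DMSO; WST-1 viability at 450 nm; n=3 in triplicate.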
A general note: In a reporter assay the amount or activity of a reporter protein is the signal.

Each structure is given as a SMILES string.

The IC50 is the concentration that inhibits the measured activity by half.

Consider `O=C(Nc1ccc(Cl)cc1)C1CCCN(C(=O)c2ccccc2-c2ccco2)C1` (stereo not drawn) [Example E-092, N-(4-chlorophenyl)-1-(2-(furan-2-yl)benzoyl)piperidine-3-carboxamide], for which half-maximal inhibition (IC50) was put at 0.71 µM.

Consider `O=C(Nc1ccc(Cl)cc1)C1CCCN(C(=O)c2ccc3cn[nH]c3c2)C1` (stereo not drawn) [Example E-093, N-(4-chlorophenyl)-1-(1H-indazole-6-carbonyl)piperidine-3-carboxamide], for which the IC50 came to 0.49 µM.

`O=C(Nc1ccc(Cl)cc1)C1CCCN(C(=O)c2ccc3occc3c2)C1` (stereo not drawn) [Example E-094, 1-(benzofuran-5-carbonyl)-N-(4-chlorophenyl)piperidine-3-carboxamide] displayed an IC50 of 0.46 µM.

Molecule `CS(=O)(=O)c1ccc(NC(=O)C2CCCN(C(=O)c3cccc(-c4ccco4)c3)C2)cc1` (stereo not drawn) [Example E-095, 1-(3-(furan-2-yl)benzoyl)-N-(4-(methylsulfonyl)phenyl) piperidine-3-carboxamide] returned an IC50 of 5.5 µM.

On to `O=C(Nc1ccc(Cl)cc1)C1CN(C(=O)c2cccc(-c3ccccn3)c2)CC(F)(F)C1` (stereo not drawn) [Example E-096, N-(4-chlorophenyl)-5,5-difluoro-1-(3-(pyridin-2-yl)benzoyl)piperidine-3-carboxamide], for which the IC50 stood at 1.1 µM.

`O=C(Nc1c(F)cccc1F)C1CCCN(C(=O)c2cccc(-c3ccco3)c2)C1` (stereo not drawn) [Example E-097, N-(2,6-difluorophenyl)-1-(3-(furan-2-yl)benzoyl)piperidine-3-carboxamide]: it took 32 µM to reach half-maximal inhibition (IC50).

In the case of `O=C(Nc1ccc(Cl)cc1)C1CN(C(=O)c2cccc(-c3ncc[nH]3)c2)CC(F)(F)C1` (stereo not drawn) [Example E-098, 1-(3-(1H-imidazol-2-yl)benzoyl)-N-(4-chlorophenyl)-5,5-difluoropiperidine-3-carboxamide], the IC50 stood at 10 µM.

In the case of `O=C(Nc1ccc(Cl)cc1)C1CN(C(=O)c2cccc(-c3cncnc3)c2)CC(F)(F)C1` (stereo not drawn) [Example E-099, N-(4-chlorophenyl)-5,5-difluoro-1-(3-(pyrimidin-5-yl)benzoyl)piperidine-3-carboxamide], 3.3 µM corresponded to half-maximal inhibition (IC50).

Molecule `O=C(Nc1ccc(Cl)cc1)C1CN(C(=O)c2cccc(-c3cccnc3)c2)CC(F)(F)C1` (stereo not drawn) [Example E-100, N-(4-chlorophenyl)-5,5-difluoro-1-(3-(pyridin-3-yl)benzoyl)piperidine-3-carboxamide] came in with an IC50 of 0.91 µM.

Molecule `O=C(Nc1ccccc1Cl)C1CCCN(C(=O)c2cccc(-c3ccco3)c2)C1` (stereo not drawn) [Example E-101, N-(2-chlorophenyl)-1-(3-(furan-2-yl)benzoyl)piperidine-3-carboxamide] yielded an IC50 of 5.6 µM.

The molecule `N#Cc1ccc(NC(=O)C2CCCN(C(=O)c3cccc(-c4ccco4)c3)C2)cc1` (stereo not drawn) [Example E-104, N-(4-cyanophenyl)-1-(3-(furan-2-yl)benzoyl)piperidine-3-carboxamide] registered an IC50 of 2.9 µM.

As for `O=C(Nc1ccc(F)cc1)C1CCCN(C(=O)c2cccc(-c3ccco3)c2)C1` (stereo not drawn) [Example E-105, N-(4-fluorophenyl)-1-(3-(furan-2-yl)benzoyl)piperidine-3-carboxamide], it took 13 µM to reach half-maximal inhibition (IC50).

The molecule `O=C(Nc1ccc(Cl)cc1)C1CN(C(=O)c2cccc(-c3cn[nH]c3)c2)CC(F)(F)C1` (stereo not drawn) [Example E-106, 1-(3-(1H-pyrazol-4-yl)benzoyl)-N-(4-chlorophenyl)-5,5-difluoropiperidine-3-carboxamide] had an IC50 of 15 µM.

With `O=C(Nc1ccc(Cl)cc1)C1CCN(C(=O)c2cccc(-c3ccco3)c2)C1` (stereo not drawn) [Example E-107, N-(4-chlorophenyl)-1-(3-(furan-2-yl)benzoyl)pyrrolidine-3-carboxamide], the IC50 amounted to 14 µM.

The molecule `O=C(Nc1ccc(Cl)cc1)C1CCCN(C(=O)c2ccc(-n3cccc3)cc2)C1` (stereo not drawn) [Example E-109, 1-(4-(1H-pyrrol-1-yl)benzoyl)-N-(4-chlorophenyl)piperidine-3-carboxamide] yielded a half-inhibitory concentration (IC50) of 6.3 µM.

Consider `O=C(Nc1ccc(Cl)cc1)C1CCCN(Cc2ccc(-n3cccc3)cc2)C1` (stereo not drawn) [Example E-110, 1-(4-(1H-pyrrol-1-yl)benzyl)-N-(4-chlorophenyl)piperidine-3-carboxamide], for which inhibition was half-maximal at 2.9 µM (IC50).

In turn, `Cc1ccc(NC(=O)C2CCCN(C(=O)c3cccc(-c4ccco4)c3)C2)cc1` (stereo not drawn) [Example E-111, 1-(3-(furan-2-yl)benzoyl)-N-(p-tolyl)piperidine-3-carboxamide] had an IC50 of 15 µM.

Take `O=C(NCc1ccc(Cl)cc1)C1CCCN(C(=O)c2cccc(-c3ccco3)c2)C1` (stereo not drawn) [Example E-112, N-(4-chlorobenzyl)-1-(3-(furan-2-yl)benzoyl)piperidine-3-carboxamide]: half-maximal inhibition (IC50) was put at 21 µM.

With `CCNc1ccc(CN2CCCC(C(=O)Nc3ccc(Cl)cc3)C2)cc1` (stereo not drawn) [Example E-113, N-(4-chlorophenyl)-1-(4-(ethylamino)benzyl)piperidine-3-carboxamide], the IC50 was determined as 8 µM.

Turning to `O=C(Nc1ccc(Cl)cc1)C1CCCN(Cc2ccc(-n3cccn3)cc2)C1` (stereo not drawn) [Example E-114, 1-(4-(1H-pyrazol-1-yl)benzyl)-N-(4-chlorophenyl)piperidine-3-carboxamide], half-maximal inhibition (IC50) was put at 1.6 µM.

As for `O=C(Nc1ccc(Cl)cc1)C1CCCN(C(=O)c2cccc(-n3ccnc3)c2)C1` (stereo not drawn) [Example E-115, 1-(3-(1H-imidazol-1-yl)benzoyl)-N-(4-chlorophenyl)piperidine-3-carboxamide], the IC50 is 5.2 µM.
